Test results taken from the NIST ThermoML archive (doi:10.1021/acs.jced.9b00310).
Numbers after ± are expanded uncertainties.

Key:
[1] = Crystal; DSC
[2] = Molar enthalpy of transition or fusion; conditions: Crystal; DSC

Triple point temperature [1]: 409.5 ± 1 K
Molar enthalpy of transition or fusion [2]: 5.69 ± 0.167 kcal/mol
SMILES: CC(=O)c1c(C)c([N+](=O)[O-])c(C(C)(C)C)c([N+](=O)[O-])c1C [3',5'-dinitro-2',6'-dimethyl-4'-tert-butylacetophenone]
